Columns and labels:
C57BL/6J mice [1] = test: Liver weight, liver tissue lipid concentrations and hepatic function indicators in blood of mice fed high-fat diet; format: in vivo, mouse; conditions: about 0.05% compound in high-fat diet, 10 weeks
Description: (§1) An obesity induction diet used in this experiment was a high-fat diet (HFD: 40% fat calories, 17 g of lard+3% corn oil/100 g diet), and the compositions of diets including the LJ-2501, LJ-2488, LJ-2495, LJ-2496 compounds were identical to that of HFD, except that each of the compounds was included in an amount of about 0.05% (Table 2). As a control drug, an anti-obesity drug, sibutramine (Sibut), was added in an amount of about 0.01% to the high-fat diet and a normal diet group (Chow) was fed with commercial rodent chow.
(§2) 5-week old 40 male C57BL/6J mice (Orient Bio., Korea) were fed with hard feed and accommodated in a laboratory environment for one week. Subsequently, in accordance with a randomized block method, the mice were randomly grouped into a normal diet group, a high-fat diet control group, two experimental substance groups, and […] and raised for a total of 10 weeks (n=8/group). Diets were supplied with water between 10 am and 11 am every day. An intake amount was measured every day and the body weights of the mice were measured every week. To prevent temporal weight change due to feed intake, feedboxes were removed and, after two hours, the body weights were measured. The experimental animals were fasted for 12 hours or more and then anesthetized with diethyl ether, followed by collecting blood, liver, and visceral adipose tissues (epididymal fat, perirenal fat, mesenteric fat, and retroperitoneal fat). The collected samples were washed with 0.1 M phosphate buffered saline (pH 7.4) and then weighed. Blood samples collected from abdominal aortas were centrifuged at 1000×g for 15 minutes, thereby separating plasma.
Lipid components were extracted from liver tissue in accordance with the method by Folch, et al. (Folch J, Lees M, Sloane Stanley G H. A simple method for the isolation and purification of total lipids from animal tissues. J Biol Chem. 1957; 226:497-509). In particular, 1 mL of distilled water was added to 0.25 g of a liver tissue sample and then homogenized by means of a Polytron homogenizer (IKA-WERKE GmbH & Co., Ultra-Turrax, Staufen, Germany). To the homogenized solution, 5 mL of a solution including chloroform and methanol (mixed in a ratio of 2:1, v/v) was added, followed by uniformly mixing. Subsequently, centrifugation was carried out at 1000×g for 10 minutes and a lower solution was separated. To a formed supernatant, 2 mL of a mixture including chloroform and methanol (mixed in a ratio of 2:1, v/v) was added, followed by repeating the same procedure. As a result, lipid components were completely isolated from the liver samples. To an obtained lower solution, 3 mL of a mixture including chloroform, methanol, and 0.05% CaCl2 (mixed in a ratio of 3:48:47, v/v/v) was added, followed by mixing for one minute. Subsequently, centrifugation was carried out at 1000×g for 10 minutes. A final lower solution was collected and completely dried with a nitrogen gas. Subsequently, the dried lipid was dissolved in 1 mL of methanol and used for lipid component analysis. The concentrations of neutral fat and cholesterol in the lipid extracts extracted from the liver tissue were measured using the same commercial lipid analysis kit (Bio Clinical System) as that used in the plasma analysis.
Glutamate oxaloacetate transferase (GOT) and glutamate pyruvate transferase (GPT) activity in serum during fasting were measured by means of an automatic biochemical analyzer (Express Plus, Chiron Diagnostics Co., USA). A kit for analysis was purchased from Bayer (Tarrytown, N.Y., USA).

C57BL/6J mice [2] = test: Oral glucose tolerance test, fasting blood glucose and insulin in mice fed high-fat diet; format: in vivo, mouse
Description: as §1, §2
The experimental animals were fasted for 18 hours after being raised eight weeks for experiment and orally administered d-glucose in an amount of 2 g/kg body weight. At 15 minutes, 30 minutes, 60 minutes, 120 minutes after the d-glucose administration, blood was collected from the tail veins of the mice. A glucose concentration in the collected blood was measured by means of a strip-operated blood glucose sensor (ONETOUCH Ultra, Inverness Medical Ltd. Stockport, UK).
A glucose concentration in plasma during fasting was measured by means of an automatic biochemical analyzer (Express Plus, Chiron Diagnostics Co., USA) and a kit reagent for analysis was purchased from Bayer (Tarrytown, N.Y., USA). An insulin concentration in plasma was measured using the Rat Insulin RIA kit (LINCO Research, Inc, St. Charles, USA).

CSc1ccc(/C=C/C=C/C(=O)N2CCCCC2)cc1 [LJ-2501, (2E,4E)-5-(4-(methylthio)phenyl)-1-(piperine-1-yl)penta-2,4-diene-1-one]
hepatic function indexes (ALT, AST) in the blood, reduction compared to HFD (C57BL/6J mice [1]): 60-65%
liver tissue cholesterol concentration, reduction compared to HFD (C57BL/6J mice [1]): 53%
liver tissue free fatty acid concentration, reduction compared to HFD (C57BL/6J mice [1]): 77%
liver tissue neutral fat concentration, reduction compared to HFD (C57BL/6J mice [1]): 35%
liver weight, reduction compared to high-fat diet control group (C57BL/6J mice [1]): 41%
size of the liver compared to HFD group (photograph) (C57BL/6J mice [1]): relatively small
blood glucose concentrations after oral glucose compared to HFD (in words) (C57BL/6J mice [2]; 2 g/kg glucose orally, 15, 30, 60 and 120 minutes): reduced in all time slots
insulin resistance index (HOMA-IR), reduction compared to HFD (C57BL/6J mice [2]; calculated from fasting glucose and insulin, 10 weeks): 61%
blood glucose concentration during fasting, reduction compared to HFD (C57BL/6J mice [2]; compound in high-fat diet for 10 weeks): 20%
blood insulin concentration, reduction compared to HFD (C57BL/6J mice [2]; compound in high-fat diet for 10 weeks, fasting): 59%
area under the curve (AUC) of blood glucose concentration, reduction compared to HFD (C57BL/6J mice [2]; oral glucose tolerance test, 2 g/kg glucose): 35%

— patent US10100011B2, “Pentadienoyl piperidine derivative and use thereof” (Industry-Academic Cooperation Foundation, Yonsei University, priority 2014, dated 2018)
